From patent publication EP0045157A1, “Macrolide antibiotics, their preparation and veterinary compositions containing them” (ELI LILLY AND COMPANY, priority 1980, dated 1982) come the findings set out here.

Series [1] can be described thus: Electrometric titration (pKa). Conditions: electrometric titration in 66% aqueous dimethylformamide; read-out: pKa value of titratable group. It is filed as physicochemical. An excerpt: Electrometric titration of DOMM in 66% aqueous dimethylformamide indicates the presence of a titratable group with a pKa value of about 7.14.
The nature of series [2]: Solubility. The class given is physicochemical. The note with it: water and most polar organic solvents (acetone, methanol, ethanol, chloroform, dimethylformamide, dimethyl sulfoxide). The source says:
DOMM acid addition salts are more soluble in water than is DOMM base.

SMILES strings stand for the structures.

One may read the pKa as the negative logarithm of the acid dissociation constant. On to `CCC1OC(=O)CC(O)C(C)C(OC2OC(C)C(OC3CC(C)(O)C(O)C(C)O3)C(N(C)C)C2O)C(CC=O)CC(C)C(=O)C=CC(C)=CC1COC1OC(C)C(O)C(O)C1O` (centres unmarked) [DOMM, 2"'-O-demethylmacrocin], for which, in series [1], the pKa is approximately 7.14. Also, the solubility result in series [2] was “soluble in water and in most polar organic solvents”.
